Reference: PubChem BioAssay (NCI)
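Grown in 96-well plates, cells were treated for 48 hours with each compound at five concentrations. Insufficient inhibition: endpoint recorded as highest concentration tested. Abbreviation: GI50, concentration required for 50% inhibition of growth. TGI is the concentration that stops growth completely.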

Columns and labels:
Test in all cases: NCI anticancer screen, dose series, 48 h
A498 renal = tested on: A498 renal
COLO 205 colon = tested on: COLO 205 colon
HCT-15 colon = tested on: HCT-15 colon
HL-60(TB) leukemia = tested on: HL-60(TB) leukemia
HS 578T breast = tested on: HS 578T breast
LOX IMVI melanoma = tested on: LOX IMVI melanoma
M14 melanoma = tested on: M14 melanoma
MCF7 breast = tested on: MCF7 breast
NCI-H23 lung = tested on: NCI-H23 lung
UACC-62 melanoma = tested on: UACC-62 melanoma

Row | SMILES | GI50 (A498 renal) [µM] | TGI (A498 renal) [µM] | GI50 (COLO 205 colon) [µM] | TGI (COLO 205 colon) [µM] | GI50 (HCT-15 colon) [µM] | TGI (HCT-15 colon) [µM] | GI50 (HL-60(TB) leukemia) [µM] | TGI (HL-60(TB) leukemia) [µM] | GI50 (HS 578T breast) [µM] | TGI (HS 578T breast) [µM] | GI50 (LOX IMVI melanoma) [µM] | TGI (LOX IMVI melanoma) [µM] | GI50 (M14 melanoma) [µM] | TGI (M14 melanoma) [µM] | GI50 (MCF7 breast) [µM] | TGI (MCF7 breast) [µM] | GI50 (NCI-H23 lung) [µM] | TGI (NCI-H23 lung) [µM] | GI50 (UACC-62 melanoma) [µM] | TGI (UACC-62 melanoma) [µM]
1 | CCCCCc1ccc(S(=O)(=O)Nc2cc(-c3csc(NC(C)=O)n3)ccc2N2CCN(C)CC2)cc1 | 6.23 | 11.3 | 5.16 | 11.8 | 1.08 | 4.49 | 1.37 | 6.09 | 5.12 | 13.4 | 0.648 | 1.35 | 2 | 7.73 | 1.6 | 6.45 | 4.78 | 9.53 | 3.83 | 8.04
2 | CCC(=O)Nc1ccc(N=NN(C)C)cc1 | – | > 100 | – | > 100 | – | > 100 | – | > 100 | – | > 100 | – | > 100 | – | > 100 | – | > 100 | – | > 100 | – | > 100
3 | CC1C(=O)OC2CC[N+]3([O-])CC=C(COC(=O)C(C)(O)C1(C)O)C23 (centres undefined) | – | > 100 | – | > 100 | – | > 100 | – | > 100 | – | > 100 | – | > 100 | – | > 100 | – | > 100 | – | > 100 | – | > 100
4 | COC(C(=O)[C@@H](O)[C@@H](C)O)[C@@H]1Cc2cc3cc(O[C@H]4C[C@@H](O[C@H]5C[C@@H](O)[C@H](O)C(C)O5)[C@H](O)C(C)O4)c(C)c(O)c3c(O)c2C(=O)[C@H]1O[C@H]1C[C@@H](O[C@H]2C[C@@H](O[C@H]3C[C@@H](O)[C@H](OC)C(C)O3)[C@@H](O)C(C)O2)[C@H](O)C(C)O1 (some centres undefined) | 0.00614 | 0.0224 | 0.0145 | 0.0521 | 0.272 | > 33.3 | 0.0651 | 0.767 | 0.019 | > 33.3 | 0.00894 | 0.0289 | 0.0372 | 0.349 | 0.00728 | > 33.3 | 0.0184 | 0.234 | 0.00659 | 0.0217
5 | CC1=CC(=O)C(C(O)(C(F)(F)F)C(F)(F)F)C(C)(C)C1 (centres undefined) | – | > 10 | – | > 10 | – | > 10 | – | > 10 | – | > 10 | – | > 10 | – | > 10 | – | > 10 | – | > 10 | – | > 10
6 | CC(C)C1=C2CCC3(C)C(CCC4C5C6OCC5(CCC6(C)C)CCC43C)C2(C)CC1 (centres undefined) | – | 36.7 | – | 37.3 | – | 40.7 | – | 27.9 | – | 51.3 | – | 28.7 | – | 41.6 | – | 47.7 | – | 54.5 | – | 41.3
7 | O=C(OCC(OC(=O)c1ccccc1)C(OC(=O)c1ccccc1)C(OC(=O)c1ccccc1)c1cnn(-c2ccccc2)n1)c1ccccc1 (centres undefined) | – | > 100 | – | > 100 | – | > 100 | – | > 100 | – | > 100 | – | > 100 | – | > 100 | – | > 100 | – | > 100 | – | > 100
8 | CCCCCCCCCCN1CCC(N2CCCCC2)CC1 | 9.27 | 21.7 | 1.3 | 2.56 | 1.38 | 3.73 | 1.1 | 3.77 | 2.06 | 6.25 | 1.23 | 2.47 | 1.72 | – | 1.54 | 3.64 | 3.35 | 14.5 | 1.76 | 3.4
